According to patent US20240261274A1, “TREATMENT OF MYC-DRIVEN CANCERS WITH GSPT1 DEGRADERS” (MONTE ROSA THERAPEUTICS, INC., priority 2021, published 2024):

Tested on: NCI-1155 NSCLC cell line derived xenograft
Assay: NCI-H1155 NSCLC CDX efficacy study (Compound 345)
Format: in vivo, immunodeficient mice
Settings: oral daily 1, 3 and 10 mg/kg
Experimental: Cell line derived xenograft (CDX) models were produced for the NCI-1155 NSCLC cell line in immunodeficient mice. Oral dosing of Compound 345 was performed daily at doses of 1 mg/kg, 3 mg/kg, and 10 mg/kg with a no-drug vehicle control. Tumor volumes were measured (mm^3) at days 3, 7, 10, 14, and 17.
In vivo efficacy study: NCI-H1155, MM1 S, WSU-DLCL2, DOHH-2 cells were maintained in vitro in individual medium and conditions as recommended by the providers and incubated at 37° C. in an atmosphere of 5% CO2 in air. 0.5 million (NCI-H1155), 10 million (MM1S) or 5 million (WSU-DLCL2 and DOHH-2) cells were resuspended in typically 0.1-0.2 mL of PBS with Matrigel (50:50) and were inoculated into 6-8 weeks old BALB/c nude female (NCI-H115, WSU-DLCL2), NOD/SCID (MM1S) or CB-17SCID (DOHH-2) mice and allowed to grow to 150-200 mm3 in size. Mice were dosed orally (PO) and daily (QD) with either vehicle or Compound 345 typically at 1.0 mg/kg, 3.0 mg/kg and 10 mg/kg. […] Tumor volumes were measured at least twice weekly during the treatment period using a caliper and the volume was expressed in mm3 using the formula: V=0.5 a×b2 where a and b were the long and short diameters of the tumor, respectively. […] Data are expressed as the mean±SEM. All data was analyzed using GraphPad Prism 8.1.2 (GraphPad).

For `O=C1CCC(N2Cc3ccc(COC(=O)Nc4cc(OC(F)(F)F)ccc4F)cc3C2=O)C(=O)N1` (stereo not shown) [Compound 345, (2-(2,6-dioxopiperidin-3-yl)-3-oxoisoindolin-5-yl)methyl(2-fluoro-5-(trifluoromethoxy)phenyl)carbamate], the tumor volume was “anti-tumor activity and regression”.
